Assay results published in ChEMBL document CHEMBL4373744, “Modifying the lipophilic part of phenylthiazole antibiotics to control their drug-likeness” (Eur J Med Chem, 2020).
≈ marks a conversion by molar mass, not a printed value. Calls of active or inactive are those of the source. No cut-off for these calls is given here.

How the values were obtained:
Enterococcus faecium = experiment: Antimicrobial activity against vancomycin-resistant Enterococcus faecium ATCC 700221 by broth liquid microdilution method; assay type: functional
Staphylococcus aureus [1] = experiment: microbe, parasite or virus in culture; conditions: NRS119
Description: Antimicrobial activity against methicillin-resistant Staphylococcus aureus NRS119 by broth liquid microdilution method

[2] = tested on: Staphylococcus epidermidis; experiment: Antimicrobial activity against methicillin-resistant Staphylococcus epidermidis NRS101 by broth liquid microdilution method; assay type: functional
Staphylococcus aureus [3] = experiment: Antibiofilm activity against methicillin-resistant Staphylococcus aureus USA300 at 2 times MIC incubated for 24 hrs by crystal violet staining based assay relative to control; assay type: functional
Staphylococcus aureus [4] = experiment: Antimicrobial activity against methicillin-resistant Staphylococcus aureus USA400 infected in mouse J774 cells assessed as reduction in […] bacterial count at 2 to 4 times MIC incubated for 24 hrs; assay type: functional, organism-based
Staphylococcus aureus [5] = experiment: microbe, parasite or virus in culture; conditions: NRS384
Description: Antimicrobial activity against methicillin-resistant Staphylococcus aureus NRS384 by broth liquid microdilution method

Staphylococcus aureus [6] = experiment: microbe, parasite or virus in culture; conditions: NRS 386
Description: Antimicrobial activity against methicillin-resistant Staphylococcus aureus NRS 386 by broth liquid microdilution method

Streptococcus pneumoniae [7] = experiment: Antimicrobial activity against methicillin-resistant Streptococcus pneumoniae ATCC 700677 by broth liquid microdilution method; assay type: functional
Staphylococcus aureus [8] = experiment: microbe, parasite or virus in culture; conditions: NRS 107
Description: Antimicrobial activity against methicillin-sensitive Staphylococcus aureus NRS 107 by broth liquid microdilution method

Staphylococcus aureus [9] = experiment: Bactericidal activity against methicillin-resistant Staphylococcus aureus USA400 assessed as 3 log reduction in number of colony forming units at 5 times MIC incubated for 12 hrs by aliquots transfer to tryptic soy agar and grown for 18 to 20 hrs by Time-kill assay; assay type: functional, organism-based
Staphylococcus aureus [10] = experiment: microbe, parasite or virus in culture; conditions: NRS 385
Description: Antimicrobial activity against methicillin-resistant Staphylococcus aureus NRS 385 by broth liquid microdilution method

Staphylococcus aureus [11] = experiment: microbe, parasite or virus in culture; conditions: NRS123
Description: Antimicrobial activity against methicillin-resistant Staphylococcus aureus NRS123 by broth liquid microdilution method

Escherichia coli [12] = experiment: Antimicrobial activity against Escherichia coli JW55031 harboring deltatolC mutant by broth liquid microdilution method; assay type: functional
Staphylococcus aureus [13] = experiment: microbe, parasite or virus in culture; conditions: ATCC 6538
Description: Antimicrobial activity against methicillin-sensitive Staphylococcus aureus ATCC 6538 by broth liquid microdilution method

Escherichia coli [14] = experiment: Antimicrobial activity against Escherichia coli BW25113 by broth liquid microdilution method; assay type: functional
Streptococcus pneumoniae [15] = experiment: Antimicrobial activity against cephalosporin-resistant Streptococcus pneumoniae ATCC 51916 by broth liquid microdilution method; assay type: functional
Staphylococcus aureus [16] = experiment: Antimicrobial activity against vancomycin-resistant Staphylococcus aureus 10 by broth liquid microdilution method; assay type: functional
Staphylococcus aureus [17] = experiment: Antibiofilm activity against methicillin-resistant Staphylococcus aureus USA300 at 4 times MIC incubated for 24 hrs by crystal violet staining based assay relative to control; assay type: functional
Listeria monocytogenes = experiment: Antimicrobial activity against Listeria monocytogenes ATCC 19111 by broth liquid microdilution method; assay type: functional
Staphylococcus aureus [18] = experiment: Antimicrobial activity against vancomycin-resistant Staphylococcus aureus 12 by broth liquid microdilution method; assay type: functional
Enterococcus faecalis = experiment: microbe, parasite or virus in culture; conditions: ATCC 51299
[19] = AUC in Sprague-Dawley rat at 50 mg/kg, po via gavage administered as a single dose measured upto 24 hrs by LC/MS/MS analysis; assay type: ADME, organism-based; parameters: time < 24 hr, dose 50 mg/kg, route oral; conditions: in vivo
Staphylococcus aureus [20] = experiment: Antimicrobial activity against methicillin-resistant Staphylococcus aureus USA400 infected in mouse J774 cells assessed as reduction in […] bacterial count at 4 times MIC incubated for 24 hrs relative to control; assay type: functional; parameters: scale not given: the % may be the effect or the level left
J774 = experiment: Cytotoxicity against mouse J774 cells assessed as reduction in cell viability at 4 to 8 ug/ml incubated for 24 hrs by MTS assay; assay type: cell-based; conditions: j774, 24 h
[21] = Aqueous solubility of compound in pH 6.8 phosphate buffer; assay type: physicochemical
[22] = Cmax in Sprague-Dawley rat at 50 mg/kg, po via gavage administered as a single dose measured upto 24 hrs by LC/MS/MS analysis; assay type: ADME, organism-based; parameters: dose 50 mg/kg, route oral; conditions: in vivo
Staphylococcus aureus [23] = experiment: Antibiofilm activity against methicillin-resistant Staphylococcus aureus USA300 incubated for 24 hrs by crystal violet staining based assay; assay type: functional, organism-based
Staphylococcus aureus [24] = experiment: Bactericidal activity against methicillin-resistant Staphylococcus aureus USA400 assessed as 3 log reduction in number of colony forming units at 5 times MIC incubated for 10 hrs by aliquots transfer to tryptic soy agar and grown for 18 to 20 hrs by Time-kill assay; assay type: functional, organism-based
[25] = Half life in Sprague-Dawley rat at 50 mg/kg, po via gavage administered as a single dose measured upto 24 hrs by LC/MS/MS analysis; assay type: ADME, organism-based; conditions: in vivo
Staphylococcus aureus [26] = experiment: Bactericidal activity against methicillin-resistant Staphylococcus aureus USA400 assessed as reduction in number of colony forming units at 5 times MIC incubated for 12 hrs by aliquots transfer to tryptic soy agar and grown for 18 to 20 hrs by Time-kill assay relative to control; assay type: functional; parameters: scale not given: the % may be the effect or the level left
[27] = Clearance in Sprague-Dawley rat at 50 mg/kg, po via gavage administered as a single dose measured upto 24 hrs by LC/MS/MS analysis; assay type: ADME, organism-based; conditions: in vivo
Staphylococcus aureus [28] = experiment: Antimicrobial activity against methicillin-resistant Staphylococcus aureus USA400 infected in mouse J774 cells assessed as reduction in […] bacterial count at 2 times MIC incubated for 24 hrs relative to control; assay type: functional; parameters: scale not given: the % may be the effect or the level left
[29] = Volume of distribution in Sprague-Dawley rat at 50 mg/kg, po via gavage administered as a single dose measured upto 24 hrs by LC/MS/MS analysis; assay type: ADME, organism-based; conditions: in vivo
[30] = Tmax in Sprague-Dawley rat at 50 mg/kg, po via gavage administered as a single dose measured upto 24 hrs by LC/MS/MS analysis; assay type: ADME, organism-based; conditions: in vivo

SMILES: CN[C@H](CC(C)C)C(=O)N[C@H]1C(=O)N[C@@H](CC(N)=O)C(=O)N[C@H]2C(=O)N[C@H]3C(=O)N[C@H](C(=O)N[C@H](C(=O)O)c4cc(O)cc(O)c4-c4cc3ccc4O)[C@H](O)c3ccc(c(Cl)c3)Oc3cc2cc(c3O[C@@H]2O[C@H](CO)[C@@H](O)[C@H](O)[C@H]2O[C@H]2C[C@](C)(N)[C@H](O)[C@H](C)O2)Oc2ccc(cc2Cl)[C@H]1O [VANCOMYCIN]
- MBC (Enterococcus faecium): > 64 µg/mL
- MIC (Enterococcus faecium): > 64 µg/mL
- MBC (Staphylococcus aureus [1]): 2 µg/mL (≈ 1.38 µM)
- MBC [2]: 2 µg/mL (≈ 1.38 µM)
- Activity (Staphylococcus aureus [3]): 9%
- Activity (Staphylococcus aureus [4]): inactive
- MBC (Staphylococcus aureus [5]): 1 µg/mL (≈ 0.69 µM)
- MBC (Staphylococcus aureus [6]): 1 µg/mL (≈ 0.69 µM)
- MIC (Streptococcus pneumoniae [7]): 2 µg/mL (≈ 1.38 µM)
- MBC (Staphylococcus aureus [8]): 2 µg/mL (≈ 1.38 µM)
- Activity (Staphylococcus aureus [9]): Active
- MBC (Staphylococcus aureus [10]): 1 µg/mL (≈ 0.69 µM)
- MBC (Staphylococcus aureus [11]): 1 µg/mL (≈ 0.69 µM)
- MIC (Escherichia coli [12]): ≤ 0.5 µg/mL
- MBC (Staphylococcus aureus [13]): 2 µg/mL (≈ 1.38 µM)
- MIC (Escherichia coli [14]): ≤ 0.5 µg/mL
- MIC (Streptococcus pneumoniae [15]): 1 µg/mL (≈ 0.69 µM)
- MBC (Staphylococcus aureus [16]): > 64 µg/mL
- MIC (Staphylococcus aureus [16]): 64 µg/mL (≈ 44.2 µM)
- Activity (Staphylococcus aureus [17]): 16%
- MIC (Listeria monocytogenes): 1 µg/mL (≈ 0.69 µM)
- MBC (Staphylococcus aureus [18]): 64 µg/mL (≈ 44.2 µM)
- MIC (Staphylococcus aureus [18]): 64 µg/mL (≈ 44.2 µM)
- MBC (Enterococcus faecalis): 64 µg/mL (≈ 44.2 µM)
- MIC (Enterococcus faecalis): 32 µg/mL (≈ 22.1 µM)

SMILES: C/C(=N\NC(=N)N)c1sc(-c2ccc(C#CCCN3CCC3)cc2)nc1C
- MBC (Enterococcus faecium): 8 µg/mL (≈ 21 µM)
- MIC (Enterococcus faecium): 2 µg/mL (≈ 5.26 µM)
- AUC at 24 h [19]: 162 µg·h/mL
- Activity (Staphylococcus aureus [20]): 99.7%
- MBC (Staphylococcus aureus [1]): 8 µg/mL (≈ 21 µM)
- MIC (Staphylococcus aureus [1]): 2 µg/mL (≈ 5.26 µM)
- MBC [2]: 4 µg/mL (≈ 10.5 µM)
- MIC [2]: 1 µg/mL (≈ 2.63 µM)
- Activity (Staphylococcus aureus [3]): 31%
- Activity (J774): Non-Toxic
- solubility [21]: 500 µM (≈ 190 µg/mL)
- Cmax [22]: 15600 ng/mL
- MBC (Staphylococcus aureus [5]): 4 µg/mL (≈ 10.5 µM)
- MIC (Staphylococcus aureus [5]): 2 µg/mL (≈ 5.26 µM)
- MBC (Staphylococcus aureus [6]): 8 µg/mL (≈ 21 µM)
- MIC (Staphylococcus aureus [6]): 2 µg/mL (≈ 5.26 µM)
- MBC (Streptococcus pneumoniae [7]): 8 µg/mL (≈ 21 µM)
- MIC (Streptococcus pneumoniae [7]): 2 µg/mL (≈ 5.26 µM)
- Activity (Staphylococcus aureus [23]): Dose-dependent effect
- MBC (Staphylococcus aureus [8]): 8 µg/mL (≈ 21 µM)
- MIC (Staphylococcus aureus [8]): 2 µg/mL (≈ 5.26 µM)
- MBC (Staphylococcus aureus [10]): 4 µg/mL (≈ 10.5 µM)
- MIC (Staphylococcus aureus [10]): 4 µg/mL (≈ 10.5 µM)
- MBC (Staphylococcus aureus [11]): 4 µg/mL (≈ 10.5 µM)
- MIC (Staphylococcus aureus [11]): 2 µg/mL (≈ 5.26 µM)
- MIC (Escherichia coli [12]): 32 µg/mL (≈ 84.1 µM)
- MBC (Staphylococcus aureus [13]): 8 µg/mL (≈ 21 µM)
- MIC (Staphylococcus aureus [13]): 2 µg/mL (≈ 5.26 µM)
- Activity (Staphylococcus aureus [24]): Active
- MIC (Escherichia coli [14]): > 64 µg/mL
- half-life [25]: 2.9 h
- Activity (Staphylococcus aureus [26]): 100%
- MBC (Streptococcus pneumoniae [15]): 8 µg/mL (≈ 21 µM)
- MIC (Streptococcus pneumoniae [15]): 2 µg/mL (≈ 5.26 µM)
- CL/F [27]: 5.17 mL/min
- Activity (Staphylococcus aureus [28]): 98%
- Vd [29]: 1.29 L
- MBC (Staphylococcus aureus [16]): 8 µg/mL (≈ 21 µM)
- MIC (Staphylococcus aureus [16]): 2 µg/mL (≈ 5.26 µM)
- Tmax [30]: 1 h
- Activity (Staphylococcus aureus [17]): 41%
- MBC (Listeria monocytogenes): 8 µg/mL (≈ 21 µM)
- MIC (Listeria monocytogenes): 4 µg/mL (≈ 10.5 µM)
- MBC (Staphylococcus aureus [18]): 16 µg/mL (≈ 42 µM)
- MIC (Staphylococcus aureus [18]): 4 µg/mL (≈ 10.5 µM)
- MBC (Enterococcus faecalis): 16 µg/mL (≈ 42 µM)
- MIC (Enterococcus faecalis): 4 µg/mL (≈ 10.5 µM)
